Source: patent publication US11981655B1, “3-(4,5-diphenyl-2-(pyridin-3-yl)-1H-imidazol-1-yl)-N,N-dimethylpropan-1-amine as an anticancer compound” (KING FAISAL UNIVERSITY, priority 2023, dated 2024)

Legend:
[1] = tested on: human prostate cancer cells (PC3); test: Cytotoxicity by SRB assay, PC3 cells; type: cell-based; conditions: 72 h, 0.01 μM to 100 μM
Experimental: (§1) The human prostate cancer cells (PC3) and human osteosarcoma cells (MG-63) were obtained from Nawah Scientific Inc. (Mokatam, Cairo, Egypt) and cultured in DMEM (Dulbecco's modified eagle's medium), Gibco, USA, supplemented with fetal bovine serum (FBS) at a concentration of 10% and 100 U/mL of penicillin and streptomycin (PS). The Cells were incubated at 37° C. in a humidified environment that contained 5% CO2.
(§2) Cells were seeded in 96-well plates as aliquots of 100 μL cell suspension and incubated in a complete media for 24 h. Afterward, cells were treated with 2-(1-(2-hydroxypropyl)-4,5-diphenyl-1H-imidazol-2-yl)pyridine at diverse concentrations ranging from 0.01 μM to 100 μM for 72 h. Then, cells were fixed at 4° C. for one hour with 150 μL of 10% trichloroacetic acid (TCA). After washing the cells five times with distilled water, 70 μL of sulforhodamine (SRB) solution (0.4% w/v) was added and incubated for 10 min at room temperature in a dark place. […] Then, 150 μL of Tris pH 10.5 (10 mM) was added, and the absorbance was measured at 540 nm using a BMG LABTECH®-FLUOstar Omega microplate reader (Ortenberg, Germany). Half maximal inhibitory concentrations (IC50) values were calculated for each experiment using GraphPad Prism 6 software. […]
(§3) The inhibition was calculated using the following equation: Inhibition %=100−Average Viability

[2] = tested on: human osteosarcoma cells (MG-63); test: Cytotoxicity by SRB assay, MG-63 cells; type: cell-based; conditions: 72 h, 0.01 μM to 100 μM
Experimental: as §1, §2, §3

With `CN(C)CCCn1c(-c2cccnc2)nc(-c2ccccc2)c1-c1ccccc1` [3-(4,5-Diphenyl-2-(pyridin-3-yl)-1H-imidazol-1-yl)-N,N-dimethylpropan-1-amine] the melting point was 145 to 147 °C, the antiproliferative activity [1] was “excellent antiproliferative activities” and the antiproliferative activity [2] was “excellent antiproliferative activities”.
